Measured values from patent publication US20110263546A1, “Polyhydroxylated Bile Acids for Treatment of Biliary Disorders” (priority 2008, published 2011).
“Also recorded” adds a separate entry of the source. Like-named read-outs stand apart in the source and are kept apart here.

Assays:
wild-type mice [1] = test: Bile flow rate (BFR) by bile duct cannulation after tail vein infusion; type: in vivo, mouse; details: for Bile flow rate, UDC compared with THBAs at similar quantity: 65 μmol/kg body weight infusion; for Bile flow rate on infusion of increasing quantities: 65-400 μmol/kg BW (6β,7αTHBA), 65 and 200 μmol/kg BW (6α,7αTHBA)
Description: After 20 minutes of bile flow equilibration, bile was collected into pre-weighed tubes at 5-minute intervals for 10 minutes. A bolus of 3α,6α,7α,12α-tetrahydroxy-5β-cholan-24-oic acid (6α,7αTHBA, pH.7.4-7.6), 3α,6β,7α,12α-tetrahydroxy-5β-cholan-24-oic acid (6β,7αTHBA, pH.7.4-7.6), ursodeoxycholic acid (UDC, pH.7.4-7.6) or cholic acid (100 μmol/kg body weight) was then infused into the tail vein over a 20-second interval. Bile was then further collected through the cannula at 2-minute intervals for 10 or 20 minutes, followed by 10-minute intervals for 30 minutes. The bile flow rate was calculated by weighing the tubes containing the collected bile.

wild-type mice [2] = details: for Infusion dose tolerated without death (highest dosage tested) / MTD compared with that of UDC: wild-type mice, tail vein infusion
Description: The maximum tolerated dose of bile acid according to the invention was determined. This test is carried out in two ways. First, as a pilot experiment of bile duct cannulation, a bolus of bile acid was infused into mice under anesthesia to measure its acute toxicity to animals. The responses of mice such as breath rate, bile flow rate, histological changes by H&E staining and the like were recorded. […] Using this tolerance level as a reference point, the acute toxicity of the bile acid was determined.
Bile collected was used for HPLC analysis.

mice = details: cited from earlier work
[3] = system: TKO, bsep−/−, mdr1a/b−/− and wildtype mice; details: female TKO mice, 0.5% CA diet
Description: Mice were maintained in a 12-hour light and dark cycle, at 22° C., with free access to food and water. The mice were fed a normal diet except where specified otherwise in the results.
Chronic toxicity is tested by supplementing the diets of mice (wild-type as well as the hypersensitive bsep KO mice) with 0.1%-0.5% β-muricholate or bile acid according to the invention. Control feeding experiments use cholate as well as ursodeoxycholate.

[4] = system: TKO, bsep−/−, mdr1a/b−/− and wildtype mice; details: 0.5% cholate diet, cited from earlier work
[5] = mice, intravenous bolus (tail vein) infusion under anesthesia

C[C@H](CCC(=O)O)[C@H]1CC[C@H]2[C@@H]3[C@H](O)[C@@H](O)[C@@H]4C[C@H](O)CC[C@]4(C)[C@H]3C[C@H](O)[C@]12C [6β,7αTHBA, 3α,6β,7α,12α-tetrahydroxy-5β-cholan-24-oic acid]
Bile flow rate, UDC compared with THBAs at similar quantity (wild-type mice [1]): similar | Bile flow rate on infusion of increasing quantities (wild-type mice [1]): corresponding increase in bile flow rate | Maximum tolerated dose (MTD) (wild-type mice [2]; [5]): > 500 μmol/kg of body weight | Infusion dose tolerated without death (highest dosage tested) (wild-type mice [2]): 500 μmol/kg of body weight | MTD compared with that of UDC (wild-type mice [2]): several times higher

C[C@H](CCC(=O)O)[C@H]1CC[C@H]2[C@@H]3[C@H](O)[C@H](O)[C@@H]4C[C@H](O)CC[C@]4(C)[C@H]3C[C@H](O)[C@]12C [6α,7αTHBA, 3α,6α,7α,12α-tetrahydroxy-5β-cholan-24-oic acid]
Bile flow rate, UDC compared with THBAs at similar quantity (wild-type mice [1]): similar | Bile flow rate on infusion of increasing quantities (wild-type mice [1]): corresponding increase in bile flow rate | Effect on bile flow rate (BFR) (wild-type mice [1]; bolus 100 μmol/kg body weight into tail vein): stimulates bile flow rate; also recorded: promotes bile flow | Maximum tolerated dose (MTD) (wild-type mice [2]; [5]): > 400 μmol/kg of body weight | Infusion dose tolerated without death (highest dosage tested) (wild-type mice [2]): 400 μmol/kg of body weight | MTD compared with that of UDC (wild-type mice [2]): several times higher

C[C@H](CCC(=O)O)[C@H]1CC[C@H]2[C@@H]3[C@@H](O)C[C@@H]4C[C@H](O)CC[C@]4(C)[C@H]3CC[C@]12C [UDC, ursodeoxycholic acid, reference compound]
Infused dose that caused death (wild-type mice [2]; FVB/NJ, mouse, in vivo): ≥ 70 μmol/kg body weight | Maximum tolerated dose (MTD) (wild-type mice [2]; mouse, in vivo, iv): 65 μmol/kg of body weight | LD50 (mice; mouse, in vivo, iv): ~600 µmol/kg | Oral LD50 relative to intravenous LD50 (mice; rodents): at least 15 times

C[C@H](CCC(=O)O)[C@H]1CC[C@H]2[C@@H]3[C@H](O)C[C@@H]4C[C@H](O)CC[C@]4(C)[C@H]3C[C@H](O)[C@]12C [CA, 3α,7α,12α-trihydroxy-5β-cholan-24-oic acid]
Time until terminally ill or died [3]: 3 to 7 days | Time to death ([4]; female TKO mice): within a week | Time to death ([4]; male bsep KO mice): ≤ 10 days
